Where two headings read alike, the source gives them in different places.

Results on 3 compounds are retold here after patent US20250248926A1, “AN INJECTABLE MICROPARTICLE SYSTEM AND METHOD OF PREPARING THEREOF” (AMRITA VISHWA VIDYAPEETHAM, priority 2022, published 2025).

For data set [1] the following is noted: by 3rd hour, CT. The procedure: Contrast agent Iodine loaded microstructures are injected in left and right hemispheres of a goat brain phantom and imaged over 4 hours using MicroCT (FIG. 21 (A-E)).
Iodine loaded microstructures (in the form of injectable gels) are injected in left and right hemispheres of a goat brain phantom and imaged over 4 hours using CT (FIG. 21 (A-E)).

The next data set has as its system C6 (rat glioma) cells. The data set is described as follows: In vitro cytotoxicity, MTT assay, C6 cells. The format is cell-based. How it is done: (§1) Cells of seeding density 4×10^4 cells/well were treated with concentrations from 1 μM-100 μM of BCNU or PL loaded microstructures 24 hours post seeding. MTT assay was performed 96 hours post treatment. […] With radiation, the cell viability of non-drug treated controls reduced by ˜60%.
(In general: Tetrazolium dyes change colour on reduction, which living cells bring about.)

For data set [2] the following is noted: rat brain. The procedure:
200-250 g Wistar rats (female) were selected for the study. Respective microparticle gel was injected (10 μl/1 mg BCNU) injected at coordinates 2 mm lateral, 2 mm anterior and 2 mm depth using stereotactic equipment. Animals were euthanized 3, 7 and 15 days post injection, brains were excised and stored at −80° C. Each brain was sliced into 1 mm sections and each section was homogenized in 1 ml MilliQ water (pH 4) and precipitated using 10 ml Ethanol. The samples are centrifuged at 10000 rpm for 15 minutes for drug extraction (repeated 4 times). The solvents are evaporated using a vacuum centrifuge and then remnant pellets are analyzed for their drug content using HPLC.

The subject of data set [3] is T98G (human glioma) cells. The experiment in a line: In vitro cytotoxicity, MTT assay, T98G cells. The format is cell-based. The settings on record: 100 μM (highest concentration), MTT 96 hours post treatment. How it is done:
as §1

Regarding `II` [Free iodine], the diffusion in data set [1] was found to be 1.6 cm.
What is called viability is a read-out of living cells in per cent, often relative to untreated cells. Take `O=NN(CCCl)C(=O)NCCCl` [free BCNU, 1,3-Bis(2-chloroethyl)-1-nitrosourea]: in the data set on C6 (rat glioma) cells (Rattus norvegicus, C6, 96 h, read-out: cells viable (cell viability)), the viability at 100 µM is ~20%. The drug in brain in data set [2] (day-3 post intracranial injection) was 15%; in data set [2] (day-15 post intracranial injection), 3.9%.
Consider `COc1cc(/C=C/C(=O)N2CCC=CC2=O)cc(OC)c1OC` [free PL, Piperlongumine], for which the “cells viable (cell viability)” value in the data set with C6 (rat glioma) cells (C6 cells, 100 μM, MTT 96 hours post treatment) is on record as ~3%. In addition, the “cells remaining (cell viability)” value in data set [3] is recorded as 16.6%.
